Results published in publication PMC5587909, “Inhibition of the ATP Synthase Eliminates the Intrinsic Resistance of Staphylococcus aureus towards Polymyxins” (mBio, 2017).
Values after ≈ are worked out from the molar mass of the structure shown. Bridge positions count the residues as written; N and C are the ends. Square brackets hold non-standard residues; d marks the D form. Peptide text beside a SMILES is read from it. * marks the point of attachment. X1 = CC[C@H](C)CCCCC(=O)*; Dab = NCC[C@H](N)C(=O)O

Experiments:
[1] = tested on: S. aureus JE2 atpA transposon mutant (SAUSA300_2060); assay: microbe, parasite or virus in culture; conditions: Etest on TSA, 37°C, 22 h; atpA mutant
Source text: (§1) Staphylococcus aureus is intrinsically resistant to the clinically approved cationic antimicrobial peptides polymyxin B (PMB) and colistin ([1], [16]). […] The MIC for PMB was subsequently determined using Etests for the identified mutants.
(§2) The strains used in this study include S. aureus strain JE2 (plasmid-cured derivative of USA300 LAC) and all derivative strains within the Nebraska Transposon Mutant Library (NTML), consisting of 1,920 unique transposon mutants with inactivation of nonessential genes ([15]). The bursa aurealis transposon used to create the collection contains the resistance cassette ermB, which confers resistance to erythromycin ([15]). Additionally we used S. aureus SA113 and two derivatives, SA113 ΔdltA ([9]) and SA113 ΔmprF ([10]). All bacterial strains were cultured at 37°C in tryptic soy broth (TSB) or on tryptic soy agar (TSA), with antimicrobial agents added as indicated. Two methods have been employed to determine MICs to various antimicrobial agents. (i) A 2-fold broth microdilution assay in TSB (100 µl) with an initial inoculum of approximately 5 × 10^5 cells/ml was employed to determine the MICs of polymyxin B sulfate (Sigma), gallidermin (Santa Cruz Biotechnology), nisin (Sigma), bacitracin (Sigma), and LL-37 (Isca Biochemicals). […] The MIC was determined upon incubation at 37°C for 22 h. […]

[2] = tested on: S. aureus JE2 vraG transposon mutant (SAUSA300_0648); assay: microbe, parasite or virus in culture; conditions: Etest on TSA, 37°C, 22 h; vraG mutant
Source text: as §1, §2

[3] = tested on: S. aureus JE2 (wild type); assay: microbe, parasite or virus in culture; conditions: Etest on TSA, 37°C, 22 h; wild type S. aureus JE2
Source text: as §1, §2

[4] = tested on: S. aureus JE2 vraF transposon mutant (SAUSA300_0647); assay: microbe, parasite or virus in culture; conditions: Etest on TSA, 37°C, 22 h; vraF mutant
Source text: as §1, §2

[5] = tested on: S. aureus JE2 graR transposon mutant (SAUSA300_0645); assay: microbe, parasite or virus in culture; conditions: Etest on TSA, 37°C, 22 h; graR mutant
Source text: as §1, §2

[6] = tested on: S. aureus JE2 graS transposon mutant (SAUSA300_0646); assay type: cell-based, Staphylococcus aureus; conditions: Etest on TSA, 37°C, 22 h; graS mutant
Source text: (§3) Staphylococcus aureus is intrinsically resistant to the clinically approved cationic antimicrobial peptides polymyxin B (PMB) and colistin ([1], [16]). […] The MIC for PMB was subsequently determined using Etests for the identified mutants. Nineteen mutants were confirmed to be at least 2-fold more susceptible than the WT (Table 1). As expected, we identified transposon insertions in graS, graR, vraF, and vraG, corroborating previous work on these determinants in S. aureus in relation to increased PMB susceptibility ([12]).
(§4) The strains used in this study include S. aureus strain JE2 (plasmid-cured derivative of USA300 LAC) and all derivative strains within the Nebraska Transposon Mutant Library (NTML), consisting of 1,920 unique transposon mutants with inactivation of nonessential genes ([15]). The bursa aurealis transposon used to create the collection contains the resistance cassette ermB, which confers resistance to erythromycin ([15]). Additionally we used S. aureus SA113 and two derivatives, SA113 ΔdltA ([9]) and SA113 ΔmprF ([10]). All bacterial strains were cultured at 37°C in tryptic soy broth (TSB) or on tryptic soy agar (TSA), with antimicrobial agents added as indicated. Two methods have been employed to determine MICs to various antimicrobial agents. (i) A 2-fold broth microdilution assay in TSB (100 µl) with an initial inoculum of approximately 5 × 10^5 cells/ml was employed to determine the MICs of polymyxin B sulfate (Sigma), gallidermin (Santa Cruz Biotechnology), nisin (Sigma), bacitracin (Sigma), and LL-37 (Isca Biochemicals). (ii) An Etest (BioMérieux) performed on TSA plates was employed to determine MICs for polymyxin B, colistin, ciprofloxacin, oxacillin, linezolid, gentamicin, vancomycin, and daptomycin. The MIC was determined upon incubation at 37°C for 22 h. When indicated, the Etest (BioMérieux) was performed on Mueller-Hinton agar plates (cation adjusted for calcium and magnesium).

[7] = tested on: S. aureus JE2 transposon mutant SAUSA300_1254 (hypothetical protein); assay type: cell-based, Staphylococcus aureus; conditions: Etest on TSA, 37°C, 22 h
Source text: as §3, §4

[8] = tested on: S. aureus JE2 trkA transposon mutant (SAUSA300_0988); assay type: cell-based, Staphylococcus aureus; conditions: Etest on TSA, 37°C, 22 h
Source text: as §3, §4

[9] = tested on: S. aureus JE2 lspA transposon mutant (SAUSA300_1089); assay type: cell-based, Staphylococcus aureus; conditions: Etest on TSA, 37°C, 22 h
Source text: as §3, §4

[10] = tested on: S. aureus JE2 atpB transposon mutant (SAUSA300_2064); assay type: cell-based, Staphylococcus aureus; conditions: Etest on TSA, 37°C, 22 h; atpB mutant
Source text: as §3, §4

[11] = tested on: S. aureus JE2 atpH transposon mutant (SAUSA300_2061); assay type: cell-based, Staphylococcus aureus; conditions: Etest on TSA, 37°C, 22 h; atpH mutant
Source text: as §3, §4

[12] = tested on: S. aureus JE2 vraS transposon mutant (SAUSA300_1866); assay type: cell-based, Staphylococcus aureus; conditions: Etest on TSA, 37°C, 22 h
Source text: as §3, §4

[13] = tested on: S. aureus JE2 atpG transposon mutant (SAUSA300_2059); assay type: cell-based, Staphylococcus aureus; conditions: Etest on TSA, 37°C, 22 h; atpG mutant
Source text: as §3, §4

[14] = tested on: S. aureus JE2 yajC transposon mutant (SAUSA300_1594); assay type: cell-based, Staphylococcus aureus; conditions: Etest on TSA, 37°C, 22 h
Source text: as §3, §4

[15] = tested on: S. aureus JE2 transposon mutant SAUSA300_0918 (diacylglycerol glucosyltransferase); assay type: cell-based, Staphylococcus aureus; conditions: Etest on TSA, 37°C, 22 h
Source text: as §3, §4

[16] = tested on: S. aureus JE2 transposon mutant SAUSA300_1785 (putative ABC transporter protein EcsB); assay type: cell-based, Staphylococcus aureus; conditions: Etest on TSA, 37°C, 22 h
Source text: as §3, §4

[17] = tested on: S. aureus JE2 transposon mutant SAUSA300_1495 (hypothetical protein); assay type: cell-based, Staphylococcus aureus; conditions: Etest on TSA, 37°C, 22 h
Source text: as §3, §4

[18] = tested on: S. aureus JE2 transposon mutant SAUSA300_1802 (hypothetical protein); assay type: cell-based, Staphylococcus aureus; conditions: Etest on TSA, 37°C, 22 h
Source text: as §3, §4

[19] = tested on: S. aureus JE2 transposon mutant SAUSA300_0980 (hypothetical protein); assay type: cell-based, Staphylococcus aureus; conditions: Etest on TSA, 37°C, 22 h
Source text: as §3, §4

[20] = tested on: S. aureus JE2 cbiO transposon mutant (SAUSA300_2176); assay type: cell-based, Staphylococcus aureus; conditions: Etest on TSA, 37°C, 22 h
Source text: as §3, §4

[21] = tested on: S. aureus JE2 atpA mutant; assay type: cell-based, Staphylococcus aureus; conditions: 2-fold broth microdilution in TSB (100 µl), inoculum approx. 5 × 10^5 cells/ml, 37°C, 22 h
Source text: as §4

[22] = tested on: S. aureus JE2 graR mutant; assay type: cell-based, Staphylococcus aureus
Source text: as §4

[23] = tested on: S. aureus JE2 (WT); assay type: cell-based, Staphylococcus aureus; conditions: 2-fold broth microdilution in TSB (100 µl), inoculum approx. 5 × 10^5 cells/ml, 37°C, 22 h
Source text: as §4

[24] = tested on: S. aureus JE2 vraF mutant; assay type: cell-based, Staphylococcus aureus
Source text: as §4

[25] = tested on: S. aureus JE2 vraG mutant; assay type: cell-based, Staphylococcus aureus; conditions: 2-fold broth microdilution in TSB (100 µl), inoculum approx. 5 × 10^5 cells/ml, 37°C, 22 h
Source text: as §4

[26] = tested on: S. aureus JE2 (WT); assay: Kill curve experiment, polymyxin B with or without oligomycin A; assay type: cell-based, Staphylococcus aureus; conditions: WT JE2 in TSB; oligomycin A alone at 8 μg/ml
Source text: The ATP synthase is a well-described protein complex, and multiple inhibitors have been identified that interfere with its function—e.g., the macrolide oligomycin A ([32]). […] The combinatory efficacy of PMB and oligomycin A is similar to the observed killing efficacy of PMB against the atpA mutant.
FIG 4 Improved killing efficacy of PMB upon inhibition of the ATP synthase. […] The data represent the average from three measurements, with error bars showing 95% confidence intervals.
From overnight cultures of S. aureus JE2 and the derivative atpA mutant, 100 μl was diluted into 900 μl fresh TSB medium in a Falcon tube and grown for 1 h for the cells to reach the early exponential phase. After 1 h, the cultures were diluted into 10 ml fresh TSB medium in 100-ml Erlenmeyer flasks, reaching an initial cell count of approximately 10^6 cells/ml. Oligomycin A (Sigma) was added to flasks as indicated at a concentration of 8 μg/ml. […] CFU were determined on TSA plates before addition of oligomycin A (time zero [T0]), before addition of polymyxin B (time 30 min [T30]), and every hour for the following 4 h.

[27] = tested on: mitochondrial ATP synthase; conditions: cited from earlier work

CC[C@H](C)CCCCC(=O)N[C@@H](CCN)C(=O)N[C@H](C(=O)N[C@@H](CCN)C(=O)N[C@H]1CCNC(=O)[C@H]([C@@H](C)O)NC(=O)[C@H](CCN)NC(=O)[C@H](CCN)NC(=O)[C@H](CC(C)C)NC(=O)[C@@H](CC(C)C)NC(=O)[C@H](CCN)NC1=O)[C@@H](C)O [Colistin, colistin] (X1-[Dab]T[Dab][Dab][Dab][dL]L[Dab][Dab]T; lactam 4-C (inferred); N-terminus assumed)
MIC [1]: 48 µg/mL (≈ 41 µM) | MIC [2]: 24 µg/mL (≈ 20.5 µM) | MIC [3]: >256 µg/mL | MIC [4]: 32 µg/mL (≈ 27.4 µM) | MIC [5]: 32 µg/mL (≈ 27.4 µM) | MIC [6]: 32 µg/mL (≈ 27.4 µM) | MIC [7]: 192 µg/mL (≈ 164 µM) | MIC [8]: 128 µg/mL (≈ 109 µM) | MIC [9]: 256 µg/mL (≈ 219 µM) | MIC [10]: 48 µg/mL (≈ 41 µM) | MIC [11]: 48 µg/mL (≈ 41 µM) | MIC [12]: 256 µg/mL (≈ 219 µM) | MIC [13]: 48 µg/mL (≈ 41 µM) | MIC [14]: 256 µg/mL (≈ 219 µM) | MIC [15]: >256 µg/mL | MIC [16]: >256 µg/mL | MIC [17]: >256 µg/mL | MIC [18]: >256 µg/mL | MIC [19]: >256 µg/mL | MIC [20]: 64 µg/mL (≈ 54.7 µM)

CC[C@H](C)[C@H](NC(=O)[C@H](CCCCN)NC(=O)[C@H](CCC(=O)O)NC(=O)[C@H](CCCCN)NC(=O)[C@H](CO)NC(=O)[C@H](CCCCN)NC(=O)[C@H](CCCNC(=N)N)NC(=O)[C@H](Cc1ccccc1)NC(=O)[C@H](Cc1ccccc1)NC(=O)[C@H](CC(=O)O)NC(=O)CNC(=O)[C@H](CC(C)C)NC(=O)[C@@H](N)CC(C)C)C(=O)NCC(=O)N[C@@H](CCCCN)C(=O)N[C@@H](CCC(=O)O)C(=O)N[C@@H](Cc1ccccc1)C(=O)N[C@@H](CCCCN)C(=O)N[C@@H](CCCNC(=N)N)C(=O)N[C@H](C(=O)N[C@H](C(=O)N[C@@H](CCC(N)=O)C(=O)N[C@@H](CCCNC(=N)N)C(=O)N[C@H](C(=O)N[C@@H](CCCCN)C(=O)N[C@@H](CC(=O)O)C(=O)N[C@@H](Cc1ccccc1)C(=O)N[C@@H](CC(C)C)C(=O)N[C@@H](CCCNC(=N)N)C(=O)N[C@@H](CC(N)=O)C(=O)N[C@@H](CC(C)C)C(=O)N[C@H](C(=O)N1CCC[C@H]1C(=O)N[C@@H](CCCNC(=N)N)C(=O)N[C@H](C(=O)N[C@@H](CCC(=O)O)C(=O)N[C@@H](CO)C(=O)O)[C@@H](C)O)C(C)C)[C@@H](C)CC)C(C)C)[C@@H](C)CC [LL-37]
MIC, atpA [21]: >128 µg/mL | MIC, graR ([22]; 2-fold broth microdilution in TSB (100 µl), inoculum approx. 5 × 10^5 cells/ml, 37°C, 22 h, graR mutant): 64 µg/mL (≈ 14.2 µM) | fold increased sensitivity relative to WT ([22]; graR mutant vs WT JE2, broth microdilution in TSB): at least 2 fold | MIC, WT [23]: >128 µg/mL | MIC, vraF ([24]; 2-fold broth microdilution in TSB (100 µl), inoculum approx. 5 × 10^5 cells/ml, 37°C, 22 h, vraF mutant): 64 µg/mL (≈ 14.2 µM) | fold increased sensitivity relative to WT ([24]; vraF mutant vs WT JE2, broth microdilution in TSB): at least 2 fold | MIC, vraG [25]: 128 µg/mL (≈ 28.5 µM)

oligomycin A
killing efficacy (CFU over time) [26]: did not display any killing efficacy | inhibition of the mitochondrial ATP synthase (nonselective) [27]: inhibits the mitochondrial ATP synthase
